Reference: the kinase profiling compilation of Christmann-Franck et al. (2016)

Tests used:
Experiment in all cases: radiometric filter-binding kinase assay, Kinase HotSpot
Settings in all cases: compound 0.5 µM; ATP 10 µM
ACVR1B (human) = ACVR1B (human) (UniProt P36896)
ACVRL1 (human) = ACVRL1 (human) (UniProt P37023)
AKT1 (human) = AKT1 (human) (UniProt P31749)
ALK (human) = ALK (human) (UniProt Q9UM73)
BTK (human) = BTK (human) (UniProt Q06187)
CAMK2G (human) = CAMK2G (human) (UniProt Q13555)
CDC42BPA (human) = CDC42BPA (human) (UniProt Q5VT25)
CDK1 CCNB1 (human) = CDK1 CCNB1 (human) (UniProt P06493+P14635)
CHEK2 (human) = CHEK2 (human) (UniProt O96017)
CSNK1G2 (human) = CSNK1G2 (human) (UniProt P78368)
DCLK2 (human) = DCLK2 (human) (UniProt Q8N568)
DYRK1A (human) = DYRK1A (human) (UniProt Q13627)
DYRK2 (human) = DYRK2 (human) (UniProt Q92630)
EPHA8 (human) = EPHA8 (human) (UniProt P29322)
FGR (human) = FGR (human) (UniProt P09769)
IKBKE (human) = IKBKE (human) (UniProt Q14164)
KDR (human) = KDR (human) (UniProt P35968)
MAP3K7 TAB1 (human) = MAP3K7 TAB1 (human) (UniProt O43318+Q15750)
MAP3K8 (human) = MAP3K8 (human) (UniProt P41279)
MAP4K2 (human) = MAP4K2 (human) (UniProt Q12851)
MAP4K4 (human) = MAP4K4 (human) (UniProt O95819)
MAPK11 (human) = MAPK11 (human) (UniProt Q15759)
MAPK3 (human) = MAPK3 (human) (UniProt P27361)
MAPK8 (human) = MAPK8 (human) (UniProt P45983)
MET (human) = MET (human) (UniProt P08581)
MUSK (human) = MUSK (human) (UniProt O15146)
PAK1 (human) = PAK1 (human) (UniProt Q13153)
PDGFRA (human) = PDGFRA (human) (UniProt P16234)
PLK3 (human) = PLK3 (human) (UniProt Q9H4B4)
PNCK (human) = PNCK (human) (UniProt Q6P2M8)
PRKCZ (human) = PRKCZ (human) (UniProt Q05513)
PRKD2 (human) = PRKD2 (human) (UniProt Q9BZL6)
RAF1 (human) = RAF1 (human) (UniProt P04049)
ROS1 (human) = ROS1 (human) (UniProt P08922)
SGK2 (human) = SGK2 (human) (UniProt Q9HBY8)
SGK3 (human) = SGK3 (human) (UniProt Q96BR1)
SRC (human) = SRC (human) (UniProt P12931)
STK10 (human) = STK10 (human) (UniProt O94804)
TAOK2 (human) = TAOK2 (human) (UniProt Q9UL54)
ULK1 (human) = ULK1 (human) (UniProt O75385)
WNK2 (human) = WNK2 (human) (UniProt Q9Y3S1)
EPHA4 (human) = EPHA4 (human) (UniProt P54764)

RAF1 (human), sequence (P04049 whole entry, looked up): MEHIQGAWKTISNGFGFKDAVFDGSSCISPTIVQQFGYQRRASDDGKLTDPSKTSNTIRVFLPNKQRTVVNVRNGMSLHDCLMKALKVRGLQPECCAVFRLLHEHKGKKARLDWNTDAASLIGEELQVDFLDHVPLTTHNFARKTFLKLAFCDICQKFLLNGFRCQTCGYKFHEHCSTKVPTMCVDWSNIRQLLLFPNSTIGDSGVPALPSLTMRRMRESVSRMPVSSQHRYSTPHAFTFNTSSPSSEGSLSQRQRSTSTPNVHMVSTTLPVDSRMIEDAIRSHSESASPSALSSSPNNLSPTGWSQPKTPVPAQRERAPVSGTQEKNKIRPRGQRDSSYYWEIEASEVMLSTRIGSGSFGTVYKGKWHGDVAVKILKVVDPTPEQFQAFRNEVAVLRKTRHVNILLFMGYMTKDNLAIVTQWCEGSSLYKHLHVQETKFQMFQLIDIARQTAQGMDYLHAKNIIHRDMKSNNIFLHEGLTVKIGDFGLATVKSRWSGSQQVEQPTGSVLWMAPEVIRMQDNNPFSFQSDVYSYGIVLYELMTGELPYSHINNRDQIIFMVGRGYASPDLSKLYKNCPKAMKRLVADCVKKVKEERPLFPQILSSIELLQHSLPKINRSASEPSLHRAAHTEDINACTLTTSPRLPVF
ULK1 (human), sequence (O75385 whole entry, looked up): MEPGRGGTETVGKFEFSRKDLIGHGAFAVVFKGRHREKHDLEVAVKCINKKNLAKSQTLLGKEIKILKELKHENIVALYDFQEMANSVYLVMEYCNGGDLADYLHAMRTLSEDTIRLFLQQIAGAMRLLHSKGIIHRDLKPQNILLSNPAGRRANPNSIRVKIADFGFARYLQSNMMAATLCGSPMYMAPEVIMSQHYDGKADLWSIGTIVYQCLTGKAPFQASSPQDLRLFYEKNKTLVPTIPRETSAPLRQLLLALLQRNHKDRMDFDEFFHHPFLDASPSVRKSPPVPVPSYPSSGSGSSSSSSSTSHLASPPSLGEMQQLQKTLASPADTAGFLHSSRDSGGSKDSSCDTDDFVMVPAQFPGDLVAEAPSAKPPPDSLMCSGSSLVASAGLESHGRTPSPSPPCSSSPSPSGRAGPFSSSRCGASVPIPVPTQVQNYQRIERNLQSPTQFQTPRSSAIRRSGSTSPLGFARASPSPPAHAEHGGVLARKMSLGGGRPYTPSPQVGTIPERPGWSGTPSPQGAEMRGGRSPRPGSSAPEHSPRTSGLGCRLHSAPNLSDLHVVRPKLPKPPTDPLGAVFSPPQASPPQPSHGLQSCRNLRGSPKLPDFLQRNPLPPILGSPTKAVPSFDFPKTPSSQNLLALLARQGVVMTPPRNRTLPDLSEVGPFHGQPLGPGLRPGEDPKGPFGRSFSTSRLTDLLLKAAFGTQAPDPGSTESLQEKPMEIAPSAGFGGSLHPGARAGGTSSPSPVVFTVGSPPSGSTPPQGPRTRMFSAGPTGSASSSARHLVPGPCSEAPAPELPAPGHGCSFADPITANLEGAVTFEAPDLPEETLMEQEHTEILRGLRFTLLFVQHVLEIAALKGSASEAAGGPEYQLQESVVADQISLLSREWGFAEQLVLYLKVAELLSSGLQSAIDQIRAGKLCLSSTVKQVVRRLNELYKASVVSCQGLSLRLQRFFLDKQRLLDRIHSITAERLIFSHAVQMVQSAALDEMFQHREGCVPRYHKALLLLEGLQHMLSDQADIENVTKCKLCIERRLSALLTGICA
FGR (human), sequence (P09769 whole entry, looked up): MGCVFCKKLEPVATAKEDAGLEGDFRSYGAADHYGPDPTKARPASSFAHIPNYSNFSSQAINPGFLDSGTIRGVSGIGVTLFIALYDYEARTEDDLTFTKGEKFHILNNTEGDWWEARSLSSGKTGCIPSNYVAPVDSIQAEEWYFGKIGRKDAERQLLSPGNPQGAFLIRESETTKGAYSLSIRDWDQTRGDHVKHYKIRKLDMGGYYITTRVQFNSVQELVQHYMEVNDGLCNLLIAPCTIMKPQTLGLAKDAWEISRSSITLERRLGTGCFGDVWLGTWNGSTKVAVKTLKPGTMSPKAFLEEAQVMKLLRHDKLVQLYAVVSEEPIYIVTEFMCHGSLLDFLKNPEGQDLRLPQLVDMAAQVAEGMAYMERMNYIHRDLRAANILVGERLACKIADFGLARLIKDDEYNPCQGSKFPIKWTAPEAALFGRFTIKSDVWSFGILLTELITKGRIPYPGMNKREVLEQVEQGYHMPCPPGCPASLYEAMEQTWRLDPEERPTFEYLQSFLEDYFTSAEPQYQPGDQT
MAP3K8 (human), sequence (P41279 whole entry, looked up): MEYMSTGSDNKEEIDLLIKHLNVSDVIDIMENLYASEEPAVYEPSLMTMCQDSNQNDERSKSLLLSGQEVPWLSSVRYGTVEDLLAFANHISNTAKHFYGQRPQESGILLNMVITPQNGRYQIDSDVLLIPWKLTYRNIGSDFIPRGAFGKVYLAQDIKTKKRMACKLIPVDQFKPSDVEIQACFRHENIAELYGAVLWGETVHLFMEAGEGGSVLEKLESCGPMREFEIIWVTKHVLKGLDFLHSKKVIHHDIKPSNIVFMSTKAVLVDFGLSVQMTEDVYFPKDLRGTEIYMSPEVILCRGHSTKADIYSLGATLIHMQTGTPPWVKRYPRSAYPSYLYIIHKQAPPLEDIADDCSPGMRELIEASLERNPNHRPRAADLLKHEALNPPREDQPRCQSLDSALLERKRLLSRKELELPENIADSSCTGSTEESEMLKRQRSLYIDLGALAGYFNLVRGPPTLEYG
DCLK2 (human), sequence (Q8N568 whole entry, looked up): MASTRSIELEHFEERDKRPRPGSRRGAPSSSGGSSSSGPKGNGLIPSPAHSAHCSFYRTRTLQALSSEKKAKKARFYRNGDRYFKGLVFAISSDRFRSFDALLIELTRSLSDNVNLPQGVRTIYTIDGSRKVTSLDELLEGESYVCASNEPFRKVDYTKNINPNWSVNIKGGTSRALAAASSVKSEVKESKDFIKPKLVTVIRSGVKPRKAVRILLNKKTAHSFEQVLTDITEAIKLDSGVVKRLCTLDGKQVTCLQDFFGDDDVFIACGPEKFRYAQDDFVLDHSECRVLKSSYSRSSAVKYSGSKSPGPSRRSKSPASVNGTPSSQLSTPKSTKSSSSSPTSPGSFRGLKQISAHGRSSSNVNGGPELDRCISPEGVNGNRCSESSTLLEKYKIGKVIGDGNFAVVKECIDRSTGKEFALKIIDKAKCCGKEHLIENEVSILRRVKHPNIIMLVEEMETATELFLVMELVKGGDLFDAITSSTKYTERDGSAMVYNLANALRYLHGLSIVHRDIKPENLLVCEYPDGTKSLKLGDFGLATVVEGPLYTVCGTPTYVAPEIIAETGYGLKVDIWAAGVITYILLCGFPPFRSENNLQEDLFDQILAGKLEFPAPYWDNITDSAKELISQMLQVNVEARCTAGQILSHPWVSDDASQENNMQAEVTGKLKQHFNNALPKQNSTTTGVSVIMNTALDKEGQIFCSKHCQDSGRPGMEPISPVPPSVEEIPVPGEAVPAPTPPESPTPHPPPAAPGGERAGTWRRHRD
PAK1 (human), sequence (Q13153 whole entry, looked up): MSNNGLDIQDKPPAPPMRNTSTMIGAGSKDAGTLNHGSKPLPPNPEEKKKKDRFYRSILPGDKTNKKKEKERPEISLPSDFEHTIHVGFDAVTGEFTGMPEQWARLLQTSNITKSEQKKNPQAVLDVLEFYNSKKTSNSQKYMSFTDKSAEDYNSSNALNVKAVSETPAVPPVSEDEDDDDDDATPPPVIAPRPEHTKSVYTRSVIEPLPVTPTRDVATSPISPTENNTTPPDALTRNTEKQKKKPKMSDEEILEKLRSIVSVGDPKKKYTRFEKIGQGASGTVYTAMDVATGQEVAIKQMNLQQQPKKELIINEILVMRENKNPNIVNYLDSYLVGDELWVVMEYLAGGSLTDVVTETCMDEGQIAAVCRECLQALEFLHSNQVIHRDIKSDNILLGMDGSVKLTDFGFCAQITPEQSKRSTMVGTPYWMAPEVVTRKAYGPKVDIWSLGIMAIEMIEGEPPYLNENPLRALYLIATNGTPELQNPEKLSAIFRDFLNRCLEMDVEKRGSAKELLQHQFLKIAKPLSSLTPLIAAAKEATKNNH
BTK (human), sequence (Q06187 whole entry, looked up): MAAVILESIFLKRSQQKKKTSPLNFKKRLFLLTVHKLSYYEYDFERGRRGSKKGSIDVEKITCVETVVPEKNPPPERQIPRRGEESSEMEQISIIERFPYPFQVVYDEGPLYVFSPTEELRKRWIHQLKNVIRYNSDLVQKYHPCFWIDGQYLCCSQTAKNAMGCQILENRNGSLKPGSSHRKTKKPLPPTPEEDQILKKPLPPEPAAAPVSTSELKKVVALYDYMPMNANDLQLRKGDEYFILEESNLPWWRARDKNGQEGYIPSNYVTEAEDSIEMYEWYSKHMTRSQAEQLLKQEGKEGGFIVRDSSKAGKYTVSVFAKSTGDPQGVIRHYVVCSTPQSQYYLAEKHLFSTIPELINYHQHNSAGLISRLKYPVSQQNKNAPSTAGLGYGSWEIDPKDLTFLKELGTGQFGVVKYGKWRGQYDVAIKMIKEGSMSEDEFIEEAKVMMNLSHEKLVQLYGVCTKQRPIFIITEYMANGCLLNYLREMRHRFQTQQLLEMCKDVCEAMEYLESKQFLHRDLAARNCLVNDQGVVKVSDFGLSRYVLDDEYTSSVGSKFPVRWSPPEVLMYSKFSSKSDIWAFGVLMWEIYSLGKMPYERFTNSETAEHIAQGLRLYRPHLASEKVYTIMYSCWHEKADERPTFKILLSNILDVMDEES
MAPK3 (human), sequence (P27361 whole entry, looked up): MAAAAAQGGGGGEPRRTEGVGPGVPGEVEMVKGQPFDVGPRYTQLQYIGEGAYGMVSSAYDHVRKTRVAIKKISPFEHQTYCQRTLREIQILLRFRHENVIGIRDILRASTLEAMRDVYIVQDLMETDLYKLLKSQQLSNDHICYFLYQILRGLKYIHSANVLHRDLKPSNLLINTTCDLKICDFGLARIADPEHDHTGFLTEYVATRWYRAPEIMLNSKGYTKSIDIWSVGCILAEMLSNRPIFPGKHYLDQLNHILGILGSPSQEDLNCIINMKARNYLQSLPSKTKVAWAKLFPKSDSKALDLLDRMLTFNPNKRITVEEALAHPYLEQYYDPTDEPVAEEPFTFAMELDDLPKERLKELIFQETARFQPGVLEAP

For `N/C(=N\N=C/c1ccc(-c2cccc([N+](=O)[O-])c2)o1)N[N+](=O)[O-]`, which residual activity (ACVR1B (human)) is on record?
The residual activity was 101%.

What about the residual activity (ACVRL1 (human)) of the same molecule?
The residual activity was 106%.

What about the residual activity (AKT1 (human)) of the same molecule?
The residual activity was 99.7%.

And the residual activity (ALK (human))?
The residual activity was 93.6%.

What about the residual activity (BTK (human)) of the same molecule?
The residual activity was 110%.

What about the residual activity (CAMK2G (human)) of the same molecule?
The residual activity was 82.1%.

What about the residual activity (CDC42BPA (human)) of the same molecule?
Its residual activity is 87.3%.

And the residual activity (CDK1 CCNB1 (human))?
The residual activity was 87.9%.

And the residual activity (CHEK2 (human))?
Its residual activity is 104%.

What about the residual activity (CSNK1G2 (human)) of the same molecule?
Its residual activity is 101%.

What about the residual activity (DCLK2 (human)) of the same molecule?
The residual activity was 101%.

What about the residual activity (DYRK1A (human)) of the same molecule?
The residual activity was 95.8%.

What about the residual activity (DYRK2 (human)) of the same molecule?
The residual activity was 93.1%.

And the residual activity (EPHA8 (human))?
The residual activity was 102%.

What about the residual activity (FGR (human)) of the same molecule?
The residual activity was 90.9%.

And the residual activity (IKBKE (human))?
The residual activity was 101%.

What about the residual activity (KDR (human)) of the same molecule?
Its residual activity is 96.7%.

What about the residual activity (MAP3K7 TAB1 (human)) of the same molecule?
Its residual activity is 91.5%.

And the residual activity (MAP3K8 (human))?
The residual activity was 98.8%.

And the residual activity (MAP4K2 (human))?
The residual activity was 115%.

What about the residual activity (MAP4K4 (human)) of the same molecule?
Its residual activity is 95.6%.

What about the residual activity (MAPK11 (human)) of the same molecule?
Its residual activity is 96.6%.

And the residual activity (MAPK3 (human))?
The residual activity was 88.4%.

What about the residual activity (MAPK8 (human)) of the same molecule?
Its residual activity is 91.2%.

And the residual activity (MET (human))?
The residual activity was 96.3%.

And the residual activity (MUSK (human))?
The residual activity was 94.4%.

What about the residual activity (PAK1 (human)) of the same molecule?
The residual activity was 91.4%.

And the residual activity (PDGFRA (human))?
Its residual activity is 93.2%.

And the residual activity (PLK3 (human))?
The residual activity was 96.8%.

What about the residual activity (PNCK (human)) of the same molecule?
The residual activity was 100%.

What about the residual activity (PRKCZ (human)) of the same molecule?
The residual activity was 90.1%.

And the residual activity (PRKD2 (human))?
Its residual activity is 94.3%.

What about the residual activity (RAF1 (human)) of the same molecule?
Its residual activity is 98.1%.

What about the residual activity (ROS1 (human)) of the same molecule?
The residual activity was 97.5%.

What about the residual activity (SGK2 (human)) of the same molecule?
Its residual activity is 101%.

What about the residual activity (SGK3 (human)) of the same molecule?
Its residual activity is 107%.

What about the residual activity (SRC (human)) of the same molecule?
The residual activity was 99%.

And the residual activity (STK10 (human))?
Its residual activity is 99.6%.

And the residual activity (TAOK2 (human))?
The residual activity was 95.3%.

And the residual activity (ULK1 (human))?
Its residual activity is 93.7%.

What about the residual activity (WNK2 (human)) of the same molecule?
The residual activity was 106%.

Which residual activity (ACVR1B (human)) does the source give for `COc1cc2c(Nc3ccc(Br)cc3F)ncnc2cc1OCC1CCN(C)CC1` here?
The residual activity was 107%.

And the residual activity (ACVRL1 (human))?
The residual activity was 104%.

What about the residual activity (AKT1 (human)) of the same molecule?
Its residual activity is 94.7%.

And the residual activity (BTK (human))?
Its residual activity is 17.6%.

What about the residual activity (CAMK2G (human)) of the same molecule?
Its residual activity is 112%.

And the residual activity (CDC42BPA (human))?
The residual activity was 83.7%.

What about the residual activity (CDK1 CCNB1 (human)) of the same molecule?
The residual activity was 102%.

And the residual activity (CHEK2 (human))?
Its residual activity is 62.1%.

What about the residual activity (CSNK1G2 (human)) of the same molecule?
The residual activity was 98.5%.

What about the residual activity (DCLK2 (human)) of the same molecule?
The residual activity was 104%.

What about the residual activity (DYRK1A (human)) of the same molecule?
The residual activity was 106%.

And the residual activity (DYRK2 (human))?
The residual activity was 97.2%.

And the residual activity (EPHA8 (human))?
The residual activity was 33.9%.

What about the residual activity (FGR (human)) of the same molecule?
Its residual activity is 30%.

And the residual activity (IKBKE (human))?
The residual activity was 85.8%.

And the residual activity (MAP3K7 TAB1 (human))?
Its residual activity is 93.9%.

And the residual activity (MAP3K8 (human))?
Its residual activity is 97.3%.

What about the residual activity (MAP4K4 (human)) of the same molecule?
Its residual activity is 79.8%.

And the residual activity (MAPK11 (human))?
Its residual activity is 97.1%.

And the residual activity (MAPK3 (human))?
The residual activity was 102%.

What about the residual activity (MAPK8 (human)) of the same molecule?
The residual activity was 93.7%.

And the residual activity (MUSK (human))?
Its residual activity is 94.6%.

What about the residual activity (PAK1 (human)) of the same molecule?
Its residual activity is 108%.

And the residual activity (PDGFRA (human))?
Its residual activity is 28.6%.

And the residual activity (PLK3 (human))?
Its residual activity is 95%.

And the residual activity (PNCK (human))?
The residual activity was 99.5%.

What about the residual activity (PRKCZ (human)) of the same molecule?
Its residual activity is 97.8%.

What about the residual activity (PRKD2 (human)) of the same molecule?
The residual activity was 92%.

What about the residual activity (RAF1 (human)) of the same molecule?
Its residual activity is 81.1%.

What about the residual activity (ROS1 (human)) of the same molecule?
The residual activity was 76.5%.

What about the residual activity (SGK2 (human)) of the same molecule?
The residual activity was 122%.

What about the residual activity (SGK3 (human)) of the same molecule?
The residual activity was 97.9%.

What about the residual activity (SRC (human)) of the same molecule?
The residual activity was 11%.

What about the residual activity (STK10 (human)) of the same molecule?
The residual activity was 21.3%.

What about the residual activity (TAOK2 (human)) of the same molecule?
The residual activity was 104%.

What about the residual activity (ULK1 (human)) of the same molecule?
The residual activity was 95.7%.

What about the residual activity (WNK2 (human)) of the same molecule?
Its residual activity is 100%.

How did the residual activity (ACVR1B (human)) turn out when `O=c1cc(N2CCOCC2)oc2c(-c3ccccc3)cccc12` was run?
Its residual activity is 101%.

And the residual activity (ACVRL1 (human))?
The residual activity was 91.9%.

What about the residual activity (AKT1 (human)) of the same molecule?
Its residual activity is 95.7%.

And the residual activity (ALK (human))?
Its residual activity is 92.4%.

And the residual activity (BTK (human))?
Its residual activity is 94.5%.

And the residual activity (CAMK2G (human))?
The residual activity was 90.5%.

What about the residual activity (CDC42BPA (human)) of the same molecule?
The residual activity was 104%.

And the residual activity (CDK1 CCNB1 (human))?
Its residual activity is 115%.

What about the residual activity (CHEK2 (human)) of the same molecule?
The residual activity was 93.7%.

What about the residual activity (CSNK1G2 (human)) of the same molecule?
The residual activity was 94.4%.

What about the residual activity (DCLK2 (human)) of the same molecule?
The residual activity was 97.6%.

What about the residual activity (DYRK1A (human)) of the same molecule?
The residual activity was 97.3%.

What about the residual activity (DYRK2 (human)) of the same molecule?
Its residual activity is 90.8%.

And the residual activity (EPHA4 (human))?
The residual activity was 99.2%.

What about the residual activity (EPHA8 (human)) of the same molecule?
Its residual activity is 103%.

And the residual activity (FGR (human))?
The residual activity was 97.5%.

And the residual activity (IKBKE (human))?
The residual activity was 100%.

What about the residual activity (KDR (human)) of the same molecule?
Its residual activity is 87.2%.

And the residual activity (MAP3K7 TAB1 (human))?
The residual activity was 85.4%.

What about the residual activity (MAP3K8 (human)) of the same molecule?
The residual activity was 98.2%.

What about the residual activity (MAP4K2 (human)) of the same molecule?
The residual activity was 87.8%.

What about the residual activity (MAP4K4 (human)) of the same molecule?
Its residual activity is 93.5%.

And the residual activity (MAPK11 (human))?
Its residual activity is 96.2%.

And the residual activity (MAPK3 (human))?
The residual activity was 104%.

What about the residual activity (MAPK8 (human)) of the same molecule?
Its residual activity is 106%.

What about the residual activity (MET (human)) of the same molecule?
The residual activity was 127%.

And the residual activity (MUSK (human))?
The residual activity was 102%.

What about the residual activity (PAK1 (human)) of the same molecule?
The residual activity was 97.8%.

What about the residual activity (PDGFRA (human)) of the same molecule?
The residual activity was 94.6%.

And the residual activity (PLK3 (human))?
The residual activity was 71.9%.

What about the residual activity (PNCK (human)) of the same molecule?
Its residual activity is 98.4%.

What about the residual activity (PRKD2 (human)) of the same molecule?
The residual activity was 93.8%.

And the residual activity (RAF1 (human))?
The residual activity was 82.3%.

And the residual activity (ROS1 (human))?
Its residual activity is 98.4%.

And the residual activity (SGK2 (human))?
The residual activity was 97%.

And the residual activity (SGK3 (human))?
The residual activity was 109%.

What about the residual activity (SRC (human)) of the same molecule?
Its residual activity is 96.3%.

What about the residual activity (STK10 (human)) of the same molecule?
Its residual activity is 97.1%.

And the residual activity (ULK1 (human))?
The residual activity was 102%.

What about the residual activity (WNK2 (human)) of the same molecule?
Its residual activity is 110%.
